Results reported in patent US20100273875A1, “Composition for External Application to Skin” (KAO CORPORATION, priority 2007, published 2010).

Assays:
[1] = David Malka et al., Journal of Hepathology, 1997; cited from earlier work
[2] = tested on: hairless mice irradiated with UV-B; assay: Evaluation of wrinkle-preventing effect (visual evaluation of wrinkles), Example 1; type: in vivo; conditions: 100 μL/day after UV-B, five times a week over 12 weeks
Experimental: (§1) Six-week-old ICR/HR female mice prepared by mating HR/HR mice with HaM/ICR mice were used as wrinkle model animals (wrinkle-formed hairless mice). The mice were allowed to take feed and water freely and raised in an ultraviolet-free environment of a temperature of 23° C. and a humidity of 55%.
(§2) The hairless mice raised as above were divided into 7 groups each having 8 mice and were irradiated with UV-B. UV-B irradiation was performed according to a known general method described in Tsukahara et al. (Br. J. Dermatol., 2004, 151, p. 984-994) or the like. Specifically, the hairless mice raised as above were placed in cages and irradiated with UV-B using Toshiba SE lamps. Irradiation was performed at an irradiance level of 40 to 50 mJ/cm^2, which corresponds to 0.8 to 1 MED (minimal erythema dose) for general 6-week-old hairless mice, over 12 weeks five times a week.
(§3) Samples to be applied to the hairless mice were prepared as 1% Exemplified Compound (1)/90% ethanol (EtOH) solution, 3% Exemplified Compound (1)/90% EtOH solution, 1% Exemplified Compound (2)/90% EtOH solution, 1% Exemplified Compound (3)/90% EtOH solution, 0.1% Exemplified Compound (4)/90% EtOH solution, and 1% Exemplified Compound (5)/90% EtOH solution.
(§4) Immediately after the ultraviolet ray irradiation, 90% EtOH (control) and the samples prepared as above were applied to the hairless mice of the respective groups over 12 weeks with five times a week at a dose of 100 μL/day. The groups of the hairless mice applied with the samples include “90% EtOH control group” consisting of the mice applied with 90% EtOH, “1%-compound 1 group” consisting of the mice applied with 1% Exemplified Compound (1)/90% EtOH solution, “3%-compound 1 group” consisting of the mice applied with 3% Exemplified Compound (1)/90% EtOH solution, “1%-compound 2 group” consisting of the mice applied with 1% Exemplified Compound (2)/90% EtOH solution, “1%-compound 3 group” consisting of the mice applied with 1% Exemplified Compound (3)/90% EtOH solution, “0.1%-compound 4 group” consisting of the mice applied with 0.1% Exemplified Compound (4)/90% EtOH solution, and “1%-compound 5 group” consisting of the mice applied with 1% Exemplified Compound (5)/90% EtOH solution.
(§5) Five-grade evaluation for wrinkles was performed to classify wrinkles into grades 0 to 4 by reference to the method described in Bisselt et al. (Photochem. Photobiol., 1989, 50, p. 763-769) by a known method described in Tsukahara et al. (Br. J. Dermatol., 2004, 151, p. 984-994) or the like.
The score of the 90% EtOH control group was defined as 100, and wrinkle scores of the respective groups were evaluated based on the five-grade evaluation.

[3] = tested on: hairless mice irradiated with UV-B; assay: Replica image analysis (image analysis area ratio), Example 1; type: in vivo; conditions: 100 μL/day after UV-B, five times a week over 12 weeks
Experimental: as §1, §2, §3, §4
Replica collection and image analysis were performed as described below. A replica was collected from the skin of the back of each hairless mouse using a rubber-based silicon impression material (GC Corporation) by a known method described in Tsukahara K et al. (Br. J. Dermatol., 2004, 151, p. 984-994) or the like.
(§6) The collected replicas were cut out into pieces with a diameter of 1.8 cm, and the pieces were lined with the impression material to correct the pieces and subjected to an image analysis. The image analysis was performed using PIAS LA-555 (PIAS Corporation) by irradiating each piece with light from a direction of oblique 30 degrees to quantify shadows formed in an area of 10 mm×10 mm (image analysis area ratio (%)).
The image analysis area ratio of the 90% EtOH control group was defined as 100, and the image analysis area ratios (%) of the respective groups were evaluated based on the image analysis area ratios obtained by the quantification.

[4] = tested on: hairless mice irradiated with UV-B; assay: Measurement of skin elasticity (Ue, Cutometer), Example 1; type: in vivo; conditions: 100 μL/day after UV-B, five times a week over 12 weeks
Experimental: as §1, §2, §3, §4
(§7) Measurement of skin elasticity was performed by a known method described in Tsukahara K et al. (Br. J. Dermatol., 2004, 151, p. 984-994) using Cutometer SEM575 (C+K Corporation) to measure a displacement formed in 2 seconds in total with a 1-second suction of 100 mb, followed by a 1-second relaxation period. Measurement was performed five times for each mouse to determine Ue, which is a parameter of an instantaneous elasticity displacement. The Ue value of the 90% EtOH control group was defined as 100, and Ue values of the respective groups were determined.

[5] = tested on: hairless mice irradiated with UV-B; assay: Comprehensive evaluation of photoaging- and wrinkle-preventing effect, Example 1; type: in vivo
Experimental: as §1, §2, §3, §4, §5, §6, §7

[6] = tested on: wrinkle-formed hairless mice; assay: Evaluation of wrinkle-improving effect (visual evaluation of wrinkles), Example 2; type: in vivo; conditions: 1% in 90% EtOH, five times a week over 6 weeks, after 10 weeks of UV-B; versus 90% EtOH control group
Experimental: Wrinkle-formed hairless mice were prepared according to the description in the sections (1) and (2)(ii) of the above Example 1 by irradiating 6-week-old ICR/HR female mice, prepared by mating HR/HR with HaM/ICR, with UV-B over 10 weeks five times a week.
The hairless mice having wrinkles formed by irradiation with UV-B were visually evaluated with reference to the method described in Bisselt et al. (Photochem. Photobiol., 1989, 50, p. 763-769) by a known method described in Tsukahara et al. (Br. J. Dermatol., 2004, 151, p. 984-994) to divide the mice into two groups each having eight mice so that the average values of wrinkle scores (evaluated according to the description in the section 2)[…])) of the respective groups were almost the same.
A sample to be applied to the wrinkle-formed hairless mice was prepared as 1% compound (1)/90% EtOH solution.
The 90% EtOH (control) and the sample prepared as above were applied to the wrinkle-formed hairless mice of the respective groups over 6 weeks with five times a week at a dose of […]. The groups of the wrinkle-formed hairless mice applied with the samples include “90% EtOH control group” consisting of the mice applied with 90% EtOH, and “1%-compound 1 group” consisting of the mice applied with 1% Exemplified Compound (1)/90% EtOH solution. […]

CCN(CCCc1ccccc1)CCCc1ccccc1 [alverine]
toxicity [1]: high toxicity

CCCCCCCCCCCC(=O)OCCN(C)C [compound 1, 2-dimethylamino-ethyl dodecanoate]
wrinkle formation inhibiting effect (wrinkle score, visual evaluation) ([2]; 1% in 90% EtOH): decrease in this order | wrinkle formation inhibiting effect (wrinkle score, visual evaluation) ([2]; 3% in 90% EtOH): decrease in this order | wrinkle formation inhibiting effect (replica image analysis) ([3]; 1% in 90% EtOH): decrease in this order | wrinkle formation inhibiting effect (replica image analysis) ([3]; 3% in 90% EtOH): decrease in this order | effect of inhibiting the decrease in skin elasticity (Ue) ([4]; 1% in 90% EtOH): decrease in this order | effect of inhibiting the decrease in skin elasticity (Ue) ([4]; 3% in 90% EtOH): decrease in this order | photoaging-preventing and wrinkle-preventing effects (comprehensive evaluation) ([5]; 1% in 90% EtOH): high | photoaging-preventing and wrinkle-preventing effects (comprehensive evaluation) ([5]; 3% in 90% EtOH): high | wrinkle score (wrinkle-improving effect, visual evaluation) [6]: lower than that of the 90% EtOH control group

CCCCCCCCCCCCNC(=O)CN(C)C [compound 2, 2-Dimethylamino-N-dodecyl-acetamide]
wrinkle formation inhibiting effect (wrinkle score, visual evaluation) ([2]; 1% in 90% EtOH): decrease in this order | wrinkle formation inhibiting effect (replica image analysis) ([3]; 1% in 90% EtOH): decrease in this order | effect of inhibiting the decrease in skin elasticity (Ue) ([4]; 1% in 90% EtOH): decrease in this order | photoaging-preventing and wrinkle-preventing effects (comprehensive evaluation) ([5]; 1% in 90% EtOH): high

CCCCCCCCCCCCOC(=O)CN(C)C [compound 3, Dodecyl dimethylamino acetate]
wrinkle formation inhibiting effect (wrinkle score, visual evaluation) ([2]; 1% in 90% EtOH): decrease in this order | wrinkle formation inhibiting effect (replica image analysis) ([3]; 1% in 90% EtOH): decrease in this order | effect of inhibiting the decrease in skin elasticity (Ue) ([4]; 1% in 90% EtOH): decrease in this order | photoaging-preventing and wrinkle-preventing effects (comprehensive evaluation) ([5]; 1% in 90% EtOH): high

CCCCCCCCCCCCOCCN(C)C [compound 4, (2-dodecyloxy-ethyl)-dimethylamine]
wrinkle formation inhibiting effect (wrinkle score, visual evaluation) ([2]; 0.1% in 90% EtOH): decrease in this order | wrinkle formation inhibiting effect (replica image analysis) ([3]; 0.1% in 90% EtOH): decrease in this order | effect of inhibiting the decrease in skin elasticity (Ue) ([4]; 0.1% in 90% EtOH): decrease in this order | photoaging-preventing and wrinkle-preventing effects (comprehensive evaluation) ([5]; 0.1% in 90% EtOH): high

CCCCCCCCCCCC(=O)NCCN(C)C [compound 5, (2-dimethylaminoethyl)-amide dodecanoate]
wrinkle formation inhibiting effect (wrinkle score, visual evaluation) ([2]; 1% in 90% EtOH): maximum effect of inhibiting wrinkle formation | wrinkle formation inhibiting effect (replica image analysis) ([3]; 1% in 90% EtOH): maximum effect of inhibiting wrinkle formation | effect of inhibiting the decrease in skin elasticity (Ue) ([4]; 1% in 90% EtOH): maximum effect of inhibiting the decrease in skin elasticity | photoaging-preventing and wrinkle-preventing effects (comprehensive evaluation) ([5]; 1% in 90% EtOH): high
